# Reference: ChEMBL document CHEMBL5058641, “Data for DCP probe TP-050” (2022)
# Key:
# [1] = target: Alpha-2A adrenergic receptor (Homo sapiens) (UniProt P08913); settings: Compound concentration 10.0 uM
# [2] = target: Prostaglandin G/H synthase 2 (Homo sapiens, UniProt P35354); experiment: COX2 Eurofins SafetyScreen (Other); set-up: species or system Inhibitor
# [3] = target: 5-hydroxytryptamine receptor 5A (Homo sapiens) (UniProt P47898); settings: Compound concentration 10.0 uM
# [4] = target: Muscarinic acetylcholine receptor M1 (Homo sapiens) (UniProt P11229); settings: Compound concentration 10.0 uM
# Mu-type opioid receptor [5] = target: T1, Mu-type opioid receptor (Homo sapiens, UniProt P35372); experiment: OPRM1 Eurofins SafetyScan (Receptor)
# [6] = target: Alpha-2C adrenergic receptor (Homo sapiens) (UniProt P18825); settings: Compound concentration 10.0 uM
# [7] = target: Histamine H3 receptor (Homo sapiens) (UniProt Q9Y5N1); settings: Compound concentration 10.0 uM
# [8] = target: Sodium-dependent dopamine transporter (Homo sapiens, UniProt Q01959); experiment: DAT Eurofins SafetyScreen (Other); set-up: species or system Blocker
# [9] = target: Sigma intracellular receptor 2 (Homo sapiens) (UniProt Q5BJF2); settings: Compound concentration 10.0 uM
# [10] = target: Beta-2 adrenergic receptor (Homo sapiens, UniProt P07550); settings: Compound concentration 10.0 uM
# [11] = target: T2, Muscarinic acetylcholine receptor M3 (Homo sapiens, UniProt P20309); experiment: CHRM3 Eurofins SafetyScan (Receptor)
# Androgen receptor = Androgen receptor (Homo sapiens, UniProt P10275); experiment: AR Eurofins SafetyScan (Receptor)
# [12] = target: T3, Kappa-type opioid receptor (Homo sapiens, UniProt P41145); experiment: OPRK1 Eurofins SafetyScan (Receptor)
# D(1A) dopamine receptor = D(1A) dopamine receptor (Homo sapiens, UniProt P21728); settings: Compound concentration 10.0 uM
# [13] = target: T2, Muscarinic acetylcholine receptor M3; settings: Compound concentration 10.0 uM
# [14] = target: Muscarinic acetylcholine receptor M4 (Homo sapiens) (UniProt P08173); settings: Compound concentration 10.0 uM
# [15] = target: 5-hydroxytryptamine receptor 1B (Homo sapiens, UniProt P28222); settings: Compound concentration 10.0 uM
# [16] = target: Vascular endothelial growth factor receptor 2 (Homo sapiens, UniProt P35968); experiment: VEGFR2 Eurofins SafetyScreen (Other); set-up: species or system Inhibitor
# [17] = target: 5-hydroxytryptamine receptor 2C (Homo sapiens) (UniProt P28335); settings: Compound concentration 10.0 uM
# [18] = target: D(4) dopamine receptor (Homo sapiens) (UniProt P21917); settings: Compound concentration 10.0 uM
# Cannabinoid receptor 2 = Cannabinoid receptor 2 (Homo sapiens, UniProt P34972); experiment: CNR2 Eurofins SafetyScan (Receptor)
# Histamine H2 receptor = Histamine H2 receptor (Homo sapiens, UniProt P25021); experiment: HRH2 Eurofins SafetyScan (Receptor)
# Endothelin-1 receptor = Endothelin-1 receptor (Homo sapiens, UniProt P25101); experiment: EDNRA Eurofins SafetyScan (Receptor)
# [19] = target: Sigma non-opioid intracellular receptor 1 (Homo sapiens) (UniProt Q99720); settings: Compound concentration 10.0 uM
# [20] = GPCRScan assay: inhibition of GABA/PBR; set-up: species or system Rattus norvegicus; radioligand conc. used [nm] 0.3 – 2.0, parental cells brain tissue
# [21] = target: 3',5'-cyclic-AMP phosphodiesterase 4D (Homo sapiens, UniProt Q08499); experiment: PDE4D2 Eurofins SafetyScreen (Other); set-up: species or system Inhibitor
# [22] = target: Alpha-1B adrenergic receptor (Homo sapiens) (UniProt P35368); settings: Compound concentration 10.0 uM
# Glucocorticoid receptor = Glucocorticoid receptor (Homo sapiens, UniProt P04150); experiment: GR Eurofins SafetyScan (Receptor)
# [23] = target: Muscarinic acetylcholine receptor M2 (Homo sapiens, UniProt P08172); experiment: CHRM2 Eurofins SafetyScan (Receptor)
# Mu-type opioid receptor [24] = target: T1, Mu-type opioid receptor; settings: Compound concentration 10.0 uM
# [25] = target: Tyrosine-protein kinase Lck (Homo sapiens, UniProt P06239); experiment: LCK Eurofins SafetyScreen (Other); set-up: species or system Inhibitor
# [26] = target: T4, 5-hydroxytryptamine receptor 2B (Homo sapiens, UniProt P41595); experiment: HTR2B Eurofins SafetyScan (Receptor)
# Insulin receptor = Insulin receptor (Homo sapiens, UniProt P06213); experiment: INSR Eurofins SafetyScreen (Other); set-up: species or system Inhibitor
# [27] = target: 5-hydroxytryptamine receptor 1D (Homo sapiens, UniProt P28221); settings: Compound concentration 10.0 uM
# [28] = target: T4, 5-hydroxytryptamine receptor 2B; settings: Compound concentration 10.0 uM
# [29] = target: 5-hydroxytryptamine receptor 1A (Homo sapiens) (UniProt P08908); settings: Compound concentration 10.0 uM
# [30] = target: Voltage-gated inwardly rectifying potassium channel KCNH2 (Homo sapiens, UniProt Q12809); experiment: hERG Eurofins SafetyScreen (Other); set-up: species or system Blocker
# [31] = target: 5-hydroxytryptamine receptor 3A (Homo sapiens, UniProt P46098); experiment: HTR3A Eurofins SafetyScreen (Other); set-up: species or system Blocker
# Adenosine receptor A2a = Adenosine receptor A2a (Homo sapiens, UniProt P29274); experiment: ADORA2A Eurofins SafetyScan (Receptor)
# [32] = target: Beta-1 adrenergic receptor (Homo sapiens, UniProt P08588); experiment: ADRB1 Eurofins SafetyScan (Receptor)
# [33] = target: Muscarinic acetylcholine receptor M2 (Homo sapiens) (UniProt P08172); settings: Compound concentration 10.0 uM
# Cannabinoid receptor 1 = Cannabinoid receptor 1 (Homo sapiens, UniProt P21554); experiment: CNR1 Eurofins SafetyScan (Receptor)
# [34] = AMPA receptor scintillation proximity binding assay; set-up: species or system Homo sapiens
# [35] = target: T3, Kappa-type opioid receptor; settings: Compound concentration 10.0 uM
# [36] = target: Sodium-dependent noradrenaline transporter (Homo sapiens, UniProt P23975); experiment: NET Eurofins SafetyScreen (Other); set-up: species or system Blocker
# [37] = target: Glutamate receptor ionotropic, NMDA 2C (Homo sapiens, UniProt Q05586+Q14957); experiment: GluN2C-containing NMDA receptor (Ca2+ influx) assay (EC50)
# [38] = target: 5-hydroxytryptamine receptor 6 (Homo sapiens) (UniProt P50406); settings: Compound concentration 10.0 uM
# T1 sequence (P35372 whole entry): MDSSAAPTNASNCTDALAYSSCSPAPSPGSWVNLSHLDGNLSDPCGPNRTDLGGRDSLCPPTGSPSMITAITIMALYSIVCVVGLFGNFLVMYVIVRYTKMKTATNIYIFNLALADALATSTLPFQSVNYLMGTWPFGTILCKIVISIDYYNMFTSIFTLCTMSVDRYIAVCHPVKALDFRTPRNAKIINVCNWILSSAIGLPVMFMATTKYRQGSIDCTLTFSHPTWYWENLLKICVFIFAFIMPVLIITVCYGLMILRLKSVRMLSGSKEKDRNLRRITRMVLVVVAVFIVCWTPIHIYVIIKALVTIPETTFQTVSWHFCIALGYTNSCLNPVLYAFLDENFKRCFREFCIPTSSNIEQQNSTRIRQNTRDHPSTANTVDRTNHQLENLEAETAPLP
# T4 sequence (P41595 whole entry): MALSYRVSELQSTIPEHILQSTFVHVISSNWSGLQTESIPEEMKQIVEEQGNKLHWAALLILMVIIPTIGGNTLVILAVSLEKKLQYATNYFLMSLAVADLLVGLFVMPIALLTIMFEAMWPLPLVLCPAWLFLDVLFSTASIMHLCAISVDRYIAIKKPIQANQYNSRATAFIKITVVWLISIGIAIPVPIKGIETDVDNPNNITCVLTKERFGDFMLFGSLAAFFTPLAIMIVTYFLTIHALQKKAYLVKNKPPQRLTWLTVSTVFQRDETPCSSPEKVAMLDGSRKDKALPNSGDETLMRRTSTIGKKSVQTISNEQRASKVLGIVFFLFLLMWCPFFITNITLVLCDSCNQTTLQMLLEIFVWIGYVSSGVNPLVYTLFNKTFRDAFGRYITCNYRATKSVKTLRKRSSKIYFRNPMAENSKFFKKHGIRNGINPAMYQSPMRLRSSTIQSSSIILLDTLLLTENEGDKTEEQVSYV
# T3 sequence (P41145 whole entry): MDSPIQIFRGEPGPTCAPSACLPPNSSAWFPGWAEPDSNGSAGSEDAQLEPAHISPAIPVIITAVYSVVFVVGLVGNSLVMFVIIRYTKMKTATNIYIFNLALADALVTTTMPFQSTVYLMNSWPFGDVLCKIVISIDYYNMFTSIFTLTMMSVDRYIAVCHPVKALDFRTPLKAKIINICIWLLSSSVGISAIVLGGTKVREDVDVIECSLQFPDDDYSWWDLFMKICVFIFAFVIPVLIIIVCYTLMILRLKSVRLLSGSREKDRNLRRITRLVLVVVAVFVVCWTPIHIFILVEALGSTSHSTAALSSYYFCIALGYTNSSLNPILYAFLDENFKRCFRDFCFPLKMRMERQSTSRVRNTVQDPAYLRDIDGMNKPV
# Androgen receptor, sequence (P10275 whole entry): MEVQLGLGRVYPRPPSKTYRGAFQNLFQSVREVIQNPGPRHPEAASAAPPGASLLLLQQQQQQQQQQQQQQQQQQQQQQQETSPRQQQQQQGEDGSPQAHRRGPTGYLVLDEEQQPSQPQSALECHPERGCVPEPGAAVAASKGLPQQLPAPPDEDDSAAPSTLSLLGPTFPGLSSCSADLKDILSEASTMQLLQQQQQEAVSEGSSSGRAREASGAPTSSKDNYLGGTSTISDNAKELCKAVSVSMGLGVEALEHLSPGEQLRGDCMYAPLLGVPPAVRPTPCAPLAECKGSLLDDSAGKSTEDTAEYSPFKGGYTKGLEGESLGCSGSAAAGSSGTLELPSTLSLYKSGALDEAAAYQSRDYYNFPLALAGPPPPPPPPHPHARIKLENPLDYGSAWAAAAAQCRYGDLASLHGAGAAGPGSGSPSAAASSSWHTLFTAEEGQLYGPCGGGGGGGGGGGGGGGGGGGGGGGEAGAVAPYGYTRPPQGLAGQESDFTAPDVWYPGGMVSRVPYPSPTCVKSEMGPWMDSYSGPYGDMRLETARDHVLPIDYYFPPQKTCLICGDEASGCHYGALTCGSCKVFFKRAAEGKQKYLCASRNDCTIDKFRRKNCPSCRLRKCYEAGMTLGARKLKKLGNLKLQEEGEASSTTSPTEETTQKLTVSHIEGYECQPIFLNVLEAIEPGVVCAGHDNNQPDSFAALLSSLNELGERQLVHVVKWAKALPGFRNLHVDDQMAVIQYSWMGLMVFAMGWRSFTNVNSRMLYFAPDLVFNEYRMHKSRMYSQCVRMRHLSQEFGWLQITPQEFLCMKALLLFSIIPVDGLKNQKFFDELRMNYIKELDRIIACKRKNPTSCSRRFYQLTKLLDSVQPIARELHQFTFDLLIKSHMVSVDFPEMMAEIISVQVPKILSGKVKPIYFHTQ
# Muscarinic acetylcholine receptor M2, sequence (P08172 whole entry): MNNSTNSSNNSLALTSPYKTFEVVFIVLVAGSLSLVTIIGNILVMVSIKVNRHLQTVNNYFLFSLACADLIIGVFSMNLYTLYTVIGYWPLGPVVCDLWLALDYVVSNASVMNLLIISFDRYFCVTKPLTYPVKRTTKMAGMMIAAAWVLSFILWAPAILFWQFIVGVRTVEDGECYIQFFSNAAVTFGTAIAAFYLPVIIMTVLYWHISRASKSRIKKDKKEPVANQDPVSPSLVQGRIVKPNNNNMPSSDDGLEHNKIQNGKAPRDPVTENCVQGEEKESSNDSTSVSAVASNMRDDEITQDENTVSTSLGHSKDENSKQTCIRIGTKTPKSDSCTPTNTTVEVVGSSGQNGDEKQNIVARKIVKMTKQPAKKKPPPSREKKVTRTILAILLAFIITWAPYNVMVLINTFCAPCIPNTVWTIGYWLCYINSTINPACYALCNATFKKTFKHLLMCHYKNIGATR
# Cannabinoid receptor 1, sequence (P21554 whole entry): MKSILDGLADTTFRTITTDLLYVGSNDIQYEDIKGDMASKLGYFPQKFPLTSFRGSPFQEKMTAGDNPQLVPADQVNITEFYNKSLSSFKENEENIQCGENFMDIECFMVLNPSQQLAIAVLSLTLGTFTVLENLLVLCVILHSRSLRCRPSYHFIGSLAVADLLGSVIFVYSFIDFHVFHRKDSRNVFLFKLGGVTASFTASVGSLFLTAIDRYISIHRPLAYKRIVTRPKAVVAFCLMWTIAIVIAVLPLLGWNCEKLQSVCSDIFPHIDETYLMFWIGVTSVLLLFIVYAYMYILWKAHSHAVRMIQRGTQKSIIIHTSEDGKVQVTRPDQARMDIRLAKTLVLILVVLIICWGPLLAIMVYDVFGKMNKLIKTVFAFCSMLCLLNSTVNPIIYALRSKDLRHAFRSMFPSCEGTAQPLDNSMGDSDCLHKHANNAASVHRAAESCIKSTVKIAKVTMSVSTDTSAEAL
# Endothelin-1 receptor, sequence (P25101 whole entry): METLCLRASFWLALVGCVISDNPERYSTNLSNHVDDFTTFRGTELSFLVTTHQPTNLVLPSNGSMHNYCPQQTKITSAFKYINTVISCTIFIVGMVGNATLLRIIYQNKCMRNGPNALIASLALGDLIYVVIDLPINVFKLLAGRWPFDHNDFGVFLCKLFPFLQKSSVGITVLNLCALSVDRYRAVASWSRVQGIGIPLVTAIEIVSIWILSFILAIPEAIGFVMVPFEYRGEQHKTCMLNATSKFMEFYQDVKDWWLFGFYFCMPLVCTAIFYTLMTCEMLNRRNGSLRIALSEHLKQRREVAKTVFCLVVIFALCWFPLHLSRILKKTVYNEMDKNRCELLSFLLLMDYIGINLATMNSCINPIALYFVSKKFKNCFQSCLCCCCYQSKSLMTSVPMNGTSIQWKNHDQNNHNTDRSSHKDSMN
# Adenosine receptor A2a, sequence (P29274 whole entry): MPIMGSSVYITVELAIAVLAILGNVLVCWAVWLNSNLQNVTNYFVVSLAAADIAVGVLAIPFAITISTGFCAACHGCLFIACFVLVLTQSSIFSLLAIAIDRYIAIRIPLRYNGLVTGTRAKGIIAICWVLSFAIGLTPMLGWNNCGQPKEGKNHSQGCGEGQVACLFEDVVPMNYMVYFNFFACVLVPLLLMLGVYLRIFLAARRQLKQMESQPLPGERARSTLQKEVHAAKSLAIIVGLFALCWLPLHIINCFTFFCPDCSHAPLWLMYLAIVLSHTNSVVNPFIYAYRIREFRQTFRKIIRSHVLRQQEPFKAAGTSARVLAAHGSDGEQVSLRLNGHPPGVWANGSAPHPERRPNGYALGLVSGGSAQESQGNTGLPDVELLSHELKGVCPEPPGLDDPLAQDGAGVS
# Cannabinoid receptor 2, sequence (P34972 whole entry): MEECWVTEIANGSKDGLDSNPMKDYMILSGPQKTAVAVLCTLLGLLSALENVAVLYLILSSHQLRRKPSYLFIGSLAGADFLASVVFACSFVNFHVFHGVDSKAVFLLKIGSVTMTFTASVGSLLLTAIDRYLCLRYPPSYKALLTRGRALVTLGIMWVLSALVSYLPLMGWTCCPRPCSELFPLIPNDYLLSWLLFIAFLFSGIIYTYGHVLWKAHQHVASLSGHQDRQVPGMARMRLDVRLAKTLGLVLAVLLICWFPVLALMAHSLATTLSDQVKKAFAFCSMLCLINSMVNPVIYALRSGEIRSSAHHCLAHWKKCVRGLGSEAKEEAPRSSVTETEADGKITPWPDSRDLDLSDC
# Histamine H2 receptor, sequence (P25021 whole entry): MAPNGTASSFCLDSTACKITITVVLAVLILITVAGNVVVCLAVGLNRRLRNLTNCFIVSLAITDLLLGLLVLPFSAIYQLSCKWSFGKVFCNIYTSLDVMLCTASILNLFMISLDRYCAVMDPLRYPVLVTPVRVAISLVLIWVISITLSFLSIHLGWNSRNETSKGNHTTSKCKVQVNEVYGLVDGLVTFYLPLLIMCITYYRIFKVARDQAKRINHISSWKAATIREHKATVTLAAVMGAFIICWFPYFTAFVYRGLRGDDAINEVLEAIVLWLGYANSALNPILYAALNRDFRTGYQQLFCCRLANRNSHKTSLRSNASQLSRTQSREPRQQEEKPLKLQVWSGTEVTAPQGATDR
# Muscarinic acetylcholine receptor M2 (Homo sapiens), sequence (P08172 whole entry): as the sequence (P08172 whole entry) above
# Sigma non-opioid intracellular receptor 1 (Homo sapiens), sequence (Q99720 whole entry): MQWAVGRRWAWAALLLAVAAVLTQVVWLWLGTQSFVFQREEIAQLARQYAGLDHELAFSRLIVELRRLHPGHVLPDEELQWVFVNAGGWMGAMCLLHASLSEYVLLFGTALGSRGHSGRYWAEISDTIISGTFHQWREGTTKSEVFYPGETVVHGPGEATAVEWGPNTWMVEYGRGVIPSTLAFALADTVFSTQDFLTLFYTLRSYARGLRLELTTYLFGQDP
structure (smiles),measurement,setting,value
Cc1cn([C@H](C)CC#N)c(=O)c2cc(Cn3nc(C(F)F)cc3Cl)nn12,inhibition,[1],15.9%
same,IC50,[2],> 10 µM
same,inhibition,[3],7.54%
same,inhibition,[4],12.5%
same,EC50,Mu-type opioid receptor [5],> 10 µM
same,IC50,Mu-type opioid receptor [5],> 10 µM
same,inhibition,[6],-1.11%
same,inhibition,[7],34.8%
same,IC50,[8],> 10 µM
same,inhibition,[9],10.9%
same,inhibition,[10],-1.62%
same,EC50,[11],> 10 µM
same,IC50,[11],> 10 µM
same,EC50,Androgen receptor,> 10 µM
same,IC50,Androgen receptor,> 10 µM
same,EC50,[12],> 10 µM
same,IC50,[12],> 10 µM
same,inhibition,D(1A) dopamine receptor,1.34%
same,inhibition,[13],11.9%
same,inhibition,[14],4.14%
same,inhibition,[15],21.7%
same,IC50,[16],> 10 µM
same,inhibition,[17],13.1%
same,inhibition,[18],48.5%
same,EC50,Cannabinoid receptor 2,> 10 µM
same,IC50,Cannabinoid receptor 2,> 10 µM
same,EC50,Histamine H2 receptor,> 10 µM
same,IC50,Histamine H2 receptor,> 10 µM
same,EC50,Endothelin-1 receptor,> 10 µM
same,IC50,Endothelin-1 receptor,> 10 µM
same,inhibition,[19],1.48%
same,Ki,[20],0.336 µM
same,pKi,[20],6.47
same,IC50,[21],> 10 µM
same,inhibition,[22],-6.73%
same,EC50,Glucocorticoid receptor,> 10 µM
same,IC50,Glucocorticoid receptor,> 10 µM
same,EC50,[23],> 10 µM
same,IC50,[23],> 10 µM
same,inhibition,Mu-type opioid receptor [24],0.85%
same,IC50,[25],> 10 µM
same,EC50,[26],> 10 µM
same,IC50,[26],> 10 µM
same,IC50,Insulin receptor,> 10 µM
same,inhibition,[27],90.8%
same,inhibition,[28],42.7%
same,inhibition,[29],-5.4%
same,IC50,[30],> 10 µM
same,IC50,[31],> 10 µM
same,EC50,Adenosine receptor A2a,> 10 µM
same,IC50,Adenosine receptor A2a,> 10 µM
same,EC50,[32],> 10 µM
same,IC50,[32],> 10 µM
same,inhibition,[33],4.32%
same,EC50,Cannabinoid receptor 1,> 10 µM
same,IC50,Cannabinoid receptor 1,> 10 µM
same,IC50,[34],> 30 µM (not active)
same,inhibition,[35],2.27%
same,IC50,[36],> 10 µM
same,EC50,[37],> 30 µM (not active)
same,inhibition,[38],8.34%
